Laboratory results published in publication PMC7139703, “Thiopurine Derivative-Induced Fpg/Nei DNA Glycosylase Inhibition: Structural, Dynamic and Functional Insights” (International Journal of Molecular Sciences, 2020).

Target: T1, LlFpg/DNA complex C2 (Lactococcus lactis subsp. cremoris, UniProt P42371)
T1 construct: made in house; host or cells: E. coli BH540 (fpg defective)
T1 sequence (P42371 2-273 limits assumed): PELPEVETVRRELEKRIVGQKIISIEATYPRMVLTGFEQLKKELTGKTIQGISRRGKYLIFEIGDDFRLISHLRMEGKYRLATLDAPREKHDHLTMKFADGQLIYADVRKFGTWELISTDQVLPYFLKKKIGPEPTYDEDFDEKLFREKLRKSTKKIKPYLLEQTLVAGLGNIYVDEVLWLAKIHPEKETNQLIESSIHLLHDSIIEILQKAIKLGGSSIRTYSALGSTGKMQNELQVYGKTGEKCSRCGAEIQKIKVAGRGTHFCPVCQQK
Experiment: EMSA, Fpg DNA binding to 14-mer [THF:C] duplex, non-specific complex C2 (Fpg/DNA 2/1)
Conditions: for effect on stability of preformed complex C2 in the presence of TCEP: [1/1] molar ratio TCEP/compound (1 mM each), Figure S6; for number of TXn equivalents per one protein equivalent for 50% inhibition of DNA binding activity, C2: value in parentheses, 10 nM Fpg
Text: To complement this study, we examined the effect of TXn on the binding of Fpg to a short DNA duplex containing a tetrahydrofuran (THF), a non-cleavable AP site analog. The enzyme specifically recognizes THF and forms a stable abortive complex with DNA [18, 34, 35, 36]. […] A representative titration experiment (with and without TCEP) of the 14-mer [THF:C] Fpg formed two stable complexes with this short DNA probe that were easily observed by EMSA: a high-affinity complex C1 corresponding to the lesion recognition complex (LRC), with nanomolar affinity, and a complex C2 only observed at higher Fpg concentrations. C2 results in C1 titration by a second Fpg molecule. This finding illustrates that the crystal structure of Fpg bound to 8-oxoG-carbanucleotide-containing DNA [38] (Figure S5). The stability of each preformed complex was then examined by EMSA in the presence of 2TX or TXn. […] The enzyme inactivation mediated by 2TX through ZnF oxidation that directly affects the DNA binding properties of the enzyme is also in agreement with this last observation.
The inhibitor concentrations that induced the loss of the half-maximal binding (IC50app^B) were determined from these curves and are reported in Table 1. IC50app^B compared well with IC50app^A. As observed above for the enzyme activity, strong reducers, such as TCEP, abolished the negative effects of 2TX and TXn on Fpg/DNA complex stability and formation. These findings again indicate that inhibition by thio-compounds essentially relies on the oxidation of the Fpg ZnF (for an example, see experiment with TX19, Figure S4). […] This troubling and unexpected observation led us to evaluate this effect with the TXn small library compounds. To prevent a side effect due to a possible partial reduction by TCEP, we performed EMSA in the presence of a 6.7-fold molar excess of TCEP with respect to 2TX and TXn after complex formation (Figure 3).
Figure 3 Impact of TXn on the non-specific Fpg/DNA complex C2 stability in highly reducing conditions. EMSA was performed as described in the ‘Material & Methods’, except TCEP was added at a 2 mM final concentration in each binding assay. (a) Representative experiment at 0.3 mM 2TX and more efficient TXn; (b) Dose-response with the best TXn. Upper panel: Representative EMSA experiment with TX10. Lower panel: Dose-response curves with the indicated TXn.
The DNA binding activity was measured using EMSA [37]. Briefly, 0.1 nM of the 5′-labeled 14-mer [THF:C] (see above) was incubated with the enzyme at 4 °C for 30 min in 25 mM HEPES/NaOH (pH 7.5), 150 mM NaCl, 5% glycerol, 0.1 mg/mL BSA and 8% DMSO. The incubation mixture was then loaded onto a native 10% polyacrylamide gel (Acryl/Bis 19/1) and electrophoresed at 25 V/cm for 90 min at 4 °C. After electrophoresis, the gels were dried and exposed overnight for autoradiography using a Typhoon imager and quantified with ImageQuant software. To evaluate the inhibitor effect of 2TX/TXn on the DNA binding activity of each Fpg/Nei enzyme, we first determined the experimental conditions required to bind 50% of the DNA probes without an inhibitor in the presence of 8% DMSO (limiting enzyme concentration). Under these conditions, we obtained the half-maximal DNA binding 0.25, 7 and 5 nM of Fpg, hNeil1 and mvNei1. We used this limited enzyme concentrations to evaluate the inhibitor effect of 2TX/TXn on the enzyme DNA binding activity. This effect was determined by the addition of the thio-compound in the pre-equilibrium mixture of the enzyme and DNA probe (30 min) and incubated for an additional 30 min at 4 °C. For the best inhibitors of Fpg, a dose-response curve was established from at least three independent experiments and the IC50 was determined (IC50^B, Table 1). […]
Rieux et al. Thiopurine derivative-induced Fpg/Nei DNA glycosylase inhibition:
structural, dynamic and functional insights
Figure S6. […]

SMILES	effect on stability of preformed complex C2 in the presence of TCEP	number of TXn equivalents per one protein equivalent for 50% inhibition of DNA binding activity, C2
O=c1[nH]c(=S)[nH]c2nc[nH]c12 [Compound 2TX, 2-thioxanthine, reference compound]	moderate effect	NA (9.7)
FC(F)(F)c1nc(S)c2nc[nH]c2n1 [TX13, 2-trifluoromethyl-6-thiopurine]	strongly destabilized	NA (1.3)
O=c1[nH]c2[nH]c(=S)[nH]c(=O)c2[nH]1 [TX14, 2-thio-6,8-dioxopurine]	moderate effect	NA (2.8)
O=c1[nH]c(=S)[nH]c2[nH]c(=S)[nH]c12 [TX19]	moderate effect	NA (2)
Nc1ncnc2[nH]c(S)nc12 [TX27]	strongly destabilized	NA (4)
